Measured values: patent publication US20240018145A1, “[…]-DEPENDENT EN[…] TREATING OR […]” (priority 2020, published 2024)

test system: FLU A (PR/8/34); experiment: Flu A Neuraminidase Antiviral Assay; format: cell-based; settings: not given

`CN1C(=O)c2c(O)c(=O)ccn2N2C(c3ccccc3F)C(CC(F)(F)F)CCC12` (single isomer, unassigned) [Compound 127B, 1-(2-fluorophenyl)-7-hydroxy-5-methyl-2-(2,2,2-trifluoroethyl)-1,2,3,4,4a,5-hexahydrodipyrido[1,2-b:2′,1′-f][1,2,4]triazine-6,8-dione] was tested. Which EC50 did it give?
Its EC50 is 0.003 µM.

How did the EC50 turn out when `CN1C(=O)c2c(O)c(=O)ccn2N2C(c3ccccc3)C(CCC(F)(F)F)CCC12` (single isomer, unassigned) [Compound 128A, 7-hydroxy-5-methyl-1-phenyl-2-(3,3,3-trifluoropropyl)-1,2,3,4,4a,5-hexahydrodipyrido[1,2-b:2′,1′-f][1,2,4]triazine-6,8-dione] was run?
The EC50 was 0.799 µM.

Which EC50 does the source give for `CN1C(=O)c2c(O)c(=O)ccn2N2C(c3ccccc3)C(CCC(F)(F)F)CCC12` (single isomer, unassigned) [Compound 128B, 7-hydroxy-5-methyl-1-phenyl-2-(3,3,3-trifluoropropyl)-1,2,3,4,4a,5-hexahydrodipyrido[1,2-b:2′,1′-f][1,2,4]triazine-6,8-dione] here?
The EC50 was 0.0015 µM.

How did the EC50 turn out when `CN1C(=O)c2c(O)c(=O)ccn2N2C(c3ccccc3)C(CC(F)F)CCC12` (single isomer, unassigned) [Compound 129A, 2-(2,2-difluoroethyl)-7-hydroxy-5-methyl-1-phenyl-1,2,3,4,4a,5-hexahydrodipyrido[1,2-b:2′,1′-f][1,2,4]triazine-6,8-dione] was run?
The EC50 was 0.0023 µM.

With `CN1C(=O)c2c(O)c(=O)ccn2N2C(c3ccccc3)C(CC(F)F)CCC12` (single isomer, unassigned) [Compound 129B, 2-(2,2-difluoroethyl)-7-hydroxy-5-methyl-1-phenyl-1,2,3,4,4a,5-hexahydrodipyrido[1,2-b:2′,1′-f][1,2,4]triazine-6,8-dione] as the compound, how does the EC50 read?
The EC50 was 0.196 µM.

How did the EC50 turn out when `CN1C(=O)c2c(O)c(=O)ccn2N2C(c3ccccc3)C(CC(F)F)CCC12` (single isomer, unassigned) [Compound 129C, 2-(2,2-difluoroethyl)-7-hydroxy-5-methyl-1-phenyl-1,2,3,4,4a,5-hexahydrodipyrido[1,2-b:2′,1′-f][1,2,4]triazine-6,8-dione] was run?
Its EC50 is 0.0066 µM.

With `CN1C(=O)c2c(O)c(=O)ccn2N2C(c3ccccc3)C(CC(F)F)CCC12` (single isomer, unassigned) [Compound 129D, 2-(2,2-difluoroethyl)-7-hydroxy-5-methyl-1-phenyl-1,2,3,4,4a,5-hexahydrodipyrido[1,2-b:2′,1′-f][1,2,4]triazine-6,8-dione] as the compound, how does the EC50 read?
Its EC50 is 0.092 µM.

`Cc1cc(=O)c(O)c2n1N1C(c3ccccc3)C(CC(F)(F)F)CCC1N(C)C2=O` (single isomer, unassigned) [Compound 132A, 7-hydroxy-5,10-dimethyl-1-phenyl-2-(2,2,2-trifluoroethyl)-1,2,3,4,4a,5-hexahydrodipyrido[1,2-b:2′,1′-f][1,2,4]triazine-6,8-dione] was tested. Which EC50 did it give?
The EC50 was greater than 0.81 µM.

`Cc1cc(=O)c(O)c2n1N1C(c3ccccc3)C(CC(F)(F)F)CCC1N(C)C2=O` (single isomer, unassigned) [Compound 132B, 7-hydroxy-5,10-dimethyl-1-phenyl-2-(2,2,2-trifluoroethyl)-1,2,3,4,4a,5-hexahydrodipyrido[1,2-b:2′,1′-f][1,2,4]triazine-6,8-dione] was tested. Which EC50 did it give?
Its EC50 is 0.0213 µM.

`Cc1cc(=O)c(O)c2n1N1C(c3ccccc3)C(CC(F)(F)F)CCC1N(C)C2=O` (single isomer, unassigned) [Compound 132C, 7-hydroxy-5,10-dimethyl-1-phenyl-2-(2,2,2-trifluoroethyl)-1,2,3,4,4a,5-hexahydrodipyrido[1,2-b:2′,1′-f][1,2,4]triazine-6,8-dione] was tested. Which EC50 did it give?
Its EC50 is greater than 0.81 µM.

With `Cc1cc(=O)c(O)c2n1N1C(c3ccccc3)C(CC(F)(F)F)CCC1N(C)C2=O` (single isomer, unassigned) [Compound 132D, 7-hydroxy-5,10-dimethyl-1-phenyl-2-(2,2,2-trifluoroethyl)-1,2,3,4,4a,5-hexahydrodipyrido[1,2-b:2′,1′-f][1,2,4]triazine-6,8-dione] as the compound, how does the EC50 read?
The EC50 was greater than 0.81 µM.

With `CN1C(=O)c2c(O)c(=O)ccn2N2[C@H](c3ccccc3)[C@H](OCC(F)F)CC[C@@H]12` (single isomer, unassigned) [Compound 153A] as the compound, how does the EC50 read?
The EC50 was 3.06 µM.

Which EC50 does the source give for `CN1C(=O)c2c(O)c(=O)ccn2N2[C@H](c3ccccc3)[C@H](OCC(F)F)CC[C@@H]12` (single isomer, unassigned) [Compound 153B] here?
Its EC50 is 0.0944 µM.

How did the EC50 turn out when `CN1C(=O)c2c(O)c(=O)ccn2C2C1CCCC2(O)c1ccccc1` (single isomer, unassigned) [Compound 165B, 1,7-dihydroxy-5-methyl-1-phenyl-1,3,4,4a,5,11a-hexahydro-2H-pyrido[1,2-a]quinoxaline-6,8-dione] was run?
Its EC50 is greater than 8.1 µM.

Which EC50 does the source give for `CCCC1CCC2C(n3ccc(=O)c(O)c3C(=O)N2C)C1(O)c1ccccc1` (single isomer, unassigned) [Compound 166B, 1,7-dihydroxy-5-methyl-1-phenyl-2-propyl-1,3,4,4a,5,11a-hexahydro-2H-pyrido[1,2-a]quinoxaline-6,8-dione] here?
Its EC50 is greater than 8.1 µM.

How did the EC50 turn out when `C=CCC1CCC2N(C)C(=O)c3c(O)c(=O)ccn3N2C1c1ccccc1Cl` (centres unmarked) [Compound 64A, 2-allyl-1-(2-chlorophenyl)-7-hydroxy-5-methyl-1,2,3,4,4a,5-hexahydrodipyrido[1,2-b:2′,1′-f][1,2,4]triazine-6,8-dione] was run?
The EC50 was 3.79 µM.

For `C=CCC1CCC2N(C)C(=O)c3c(O)c(=O)ccn3N2C1c1ccccc1Cl` (centres unmarked) [Compound 64B, 2-allyl-1-(2-chlorophenyl)-7-hydroxy-5-methyl-1,2,3,4,4a,5-hexahydrodipyrido[1,2-b:2′,1′-f][1,2,4]triazine-6,8-dione], which EC50 is on record?
Its EC50 is 0.0284 µM.

With `C=CCC1CCC2N(C)C(=O)c3c(O)c(=O)ccn3N2C1c1ccccc1Cl` (centres unmarked) [Compound 64C, 2-allyl-1-(2-chlorophenyl)-7-hydroxy-5-methyl-1,2,3,4,4a,5-hexahydrodipyrido[1,2-b:2′,1′-f][1,2,4]triazine-6,8-dione] as the compound, how does the EC50 read?
Its EC50 is 0.673 µM.

Which EC50 does the source give for `C=CCC1CCC2N(C)C(=O)c3c(O)c(=O)ccn3N2C1c1ccccc1Cl` (centres unmarked) [Compound 64D, 2-allyl-1-(2-chlorophenyl)-7-hydroxy-5-methyl-1,2,3,4,4a,5-hexahydrodipyrido[1,2-b:2′,1′-f][1,2,4]triazine-6,8-dione] here?
The EC50 was 0.0046 µM.

Which EC50 does the source give for `CCCC1CCC2N(C)C(=O)c3c(O)c(=O)ccn3N2C1c1ccccc1Cl` (centres unmarked) [Compound 65A, 1-(2-chlorophenyl)-7-hydroxy-5-methyl-2-propyl-1,2,3,4,4a,5-hexahydrodipyrido[1,2-b:2′,1′-f][1,2,4]triazine-6,8-dione] here?
The EC50 was 0.396 µM.

With `CCCC1CCC2N(C)C(=O)c3c(O)c(=O)ccn3N2C1c1ccccc1Cl` (centres unmarked) [Compound 65B, 1-(2-chlorophenyl)-7-hydroxy-5-methyl-2-propyl-1,2,3,4,4a,5-hexahydrodipyrido[1,2-b:2′,1′-f][1,2,4]triazine-6,8-dione] as the compound, how does the EC50 read?
The EC50 was 0.0028 µM.

`CN1C(=O)c2c(O)c(=O)ccn2N2C(c3ccccc3Cl)C(CCO)CCC12` (centres unmarked) [Compound 66A, 1-(2-chlorophenyl)-7-hydroxy-2-(2-hydroxyethyl)-5-methyl-1,2,3,4,4a,5-hexahydrodipyrido[1,2-b:2′,1′-f][1,2,4]triazine-6,8-dione] was tested. Which EC50 did it give?
Its EC50 is greater than 8.1 µM.

For `CN1C(=O)c2c(O)c(=O)ccn2N2C(c3ccccc3Cl)C(CCO)CCC12` (centres unmarked) [Compound 66B, 1-(2-chlorophenyl)-7-hydroxy-2-(2-hydroxyethyl)-5-methyl-1,2,3,4,4a,5-hexahydrodipyrido[1,2-b:2′,1′-f][1,2,4]triazine-6,8-dione], which EC50 is on record?
The EC50 was 0.182 µM.

same assay, conditions: MDCK, 48 h

For `CC(C)CC1CC(c2ccccc2)N2C(C1)N(C)C(=O)c1c(O)c(=O)ccn12` (single isomer, unassigned) [Compound 130A, 7-hydroxy-3-isobutyl-5-methyl-1-phenyl-1,2,3,4,4a,5-hexahydrodipyrido[1,2-b:2′,1′-f][1,2,4]triazine-6,8-dione], which EC50 is on record?
The EC50 was greater than 8.1 µM.

How did the EC50 turn out when `CCN1C(=O)c2c(O)c(=O)cc(COC)n2N2C(c3ccccc3)C(CC(F)(F)F)CCC12` (single isomer, unassigned) [Compound 131A, 5-ethyl-7-hydroxy-10-(methoxymethyl)-1-phenyl-2-(2,2,2-trifluoroethyl)-1,2,3,4,4a,5-hexahydrodipyrido[1,2-b:2′,1′-f][1,2,4]triazine-6,8-dione] was run?
Its EC50 is greater than 0.81 µM.

With `CN1C(=O)c2c(O)c(=O)ccn2N2C(c3ccccc3)C(O)CCC12` (single isomer, unassigned) [Compound 135A, 2,7-dihydroxy-5-methyl-1-phenyl-1,2,3,4,4a,5-hexahydrodipyrido[1,2-b:2′,1′-f][1,2,4]triazine-6,8-dione] as the compound, how does the EC50 read?
The EC50 was 0.428 µM.

`CN1C(=O)c2c(O)c(=O)ccn2C2C1CCCC2(O)c1ccccc1` (single isomer, unassigned) [Compound 165A, 1,7-dihydroxy-5-methyl-1-phenyl-1,3,4,4a,5,11a-hexahydro-2H-pyrido[1,2-a]quinoxaline-6,8-dione] was tested. Which EC50 did it give?
The EC50 was greater than 8.1 µM.

For `CCCC1CCC2C(n3ccc(=O)c(O)c3C(=O)N2C)C1(O)c1ccccc1` (single isomer, unassigned) [Compound 166A, 1,7-dihydroxy-5-methyl-1-phenyl-2-propyl-1,3,4,4a,5,11a-hexahydro-2H-pyrido[1,2-a]quinoxaline-6,8-dione], which EC50 is on record?
The EC50 was greater than 8.1 µM.

Which EC50 does the source give for `CN1C(=O)c2c(O)c(=O)ccn2N2C(c3ccccc3)[C@H]3CCCC[C@H]3C12` (stereo partly drawn) [Compound 16, (6bR,10aS)-4-hydroxy-6-methyl-11-phenyl-6a,6b,7,8,9,10,10a,11-octahydro-3H-pyrido[1′,2′:1,6][1,2,4]triazino[3,2-a]isoindole-3,5(6H)-dione] here?
The EC50 was 4.1 µM.

With `CN1C(=O)c2c(OCc3ccccc3)c(=O)ccn2N2C(c3ccccc3)CCCCCC12` (centres unmarked) [Compound 58A, 4-(benzyloxy)-6-methyl-12-phenyl-6,6a,7,8,9,10,11,12-octahydropyrido[1′,2′:1,6][1,2,4]triazino[2,3-a]azocine-3,5-dione] as the compound, how does the EC50 read?
The EC50 was greater than 8.1 µM.

With `CN1C(=O)c2c(O)c(=O)ccn2N2C(c3ccccc3)CCC12` (centres unmarked) [Compound 60B, 6-hydroxy-4-methyl-1-phenyl-2,3,3a,4-tetrahydro-1H-pyrido[2,1-f]pyrrolo[1,2-b][1,2,4]triazine-5,7-dione] as the compound, how does the EC50 read?
Its EC50 is 0.884 µM.

Which EC50 does the source give for `CCC1(c2ccccc2)CCC2N(C)C(=O)c3c(O)c(=O)ccn3N21` (centres unmarked) [Compound 62A, 1-ethyl-6-hydroxy-4-methyl-1-phenyl-2,3,3a,4-tetrahydro-1H-pyrido[2,1-f]pyrrolo[1,2-b][1,2,4]triazine-5,7-dione] here?
Its EC50 is greater than 8.1 µM.
